Laboratory results from the supplement of paper PMC10307832.

How the values were obtained:
Assay in all cases: relative viability (nuclei count vs DMSO), 5 days (fraction); higher = more cells survive
Bosutinib + Phenformin = compound: COc1cc(Nc2c(C#N)cnc3cc(OCCCN4CCN(C)CC4)c(OC)cc23)c(Cl)cc1Cl [Bosutinib] + N=C(N)NC(=N)NCCc1ccccc1 [Phenformin] (partner 250 µM)
In short: (§1)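 The day after seeding in 1536-well plates, lung cancer cell lines were treated by pin tool with a single drug, or with a fixed anchor-drug dose together with five library-drug doses (not always all listed) in √10 steps. After 5 days, a combined fix-and-stain solution (final 0.05% Triton X-100, 1% formaldehyde, 1 ug/ml Hoechst) was added. Nuclei counted on 4× images gave relative viability as treated counts over vehicle counts, reported as the median of duplicate plates.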

Bosutinib + Crizotinib = compound: COc1cc(Nc2c(C#N)cnc3cc(OCCCN4CCN(C)CC4)c(OC)cc23)c(Cl)cc1Cl [Bosutinib] + C[C@@H](Oc1cc(-c2cnn(C3CCNCC3)c2)cnc1N)c1c(Cl)ccc(F)c1Cl [Crizotinib] (partner 1 µM)
In short: as §1

Bosutinib + Luminespib = compound: COc1cc(Nc2c(C#N)cnc3cc(OCCCN4CCN(C)CC4)c(OC)cc23)c(Cl)cc1Cl [Bosutinib] + CCNC(=O)c1noc(-c2cc(C(C)C)c(O)cc2O)c1-c1ccc(CN2CCOCC2)cc1 [Luminespib] (partner 0.01 µM)
In short: as §1

Bosutinib + Pictilisib = compound: COc1cc(Nc2c(C#N)cnc3cc(OCCCN4CCN(C)CC4)c(OC)cc23)c(Cl)cc1Cl [Bosutinib] + CS(=O)(=O)N1CCN(Cc2cc3nc(-c4cccc5[nH]ncc45)nc(N4CCOCC4)c3s2)CC1 [Pictilisib] (partner 1 µM)
In short: as §1

Bosutinib + Linsitinib = compound: COc1cc(Nc2c(C#N)cnc3cc(OCCCN4CCN(C)CC4)c(OC)cc23)c(Cl)cc1Cl [Bosutinib] + C[C@]1(O)C[C@@H](c2nc(-c3ccc4ccc(-c5ccccc5)nc4c3)c3c(N)nccn32)C1 [Linsitinib] (partner 1 µM)
In short: as §1

Cell Line	relative viability (Bosutinib + Phenformin; first compound 0.01 µM)	relative viability (Bosutinib + Phenformin; first compound 0.03162 µM)	relative viability (Bosutinib + Phenformin; first compound 0.1 µM)	relative viability (Bosutinib + Phenformin; first compound 1 µM)	relative viability (Bosutinib + Crizotinib; first compound 0.01 µM)	relative viability (Bosutinib + Crizotinib; first compound 0.03162 µM)	relative viability (Bosutinib + Crizotinib; first compound 0.1 µM)	relative viability (Bosutinib + Crizotinib; first compound 1 µM)	relative viability (Bosutinib + Luminespib; first compound 0.01 µM)	relative viability (Bosutinib + Luminespib; first compound 0.03162 µM)	relative viability (Bosutinib + Luminespib; first compound 0.1 µM)	relative viability (Bosutinib + Luminespib; first compound 1 µM)	relative viability (Bosutinib + Pictilisib; first compound 0.01 µM)	relative viability (Bosutinib + Pictilisib; first compound 0.03162 µM)	relative viability (Bosutinib + Pictilisib; first compound 0.1 µM)	relative viability (Bosutinib + Pictilisib; first compound 1 µM)	relative viability (Bosutinib + Linsitinib; first compound 0.01 µM)	relative viability (Bosutinib + Linsitinib; first compound 0.03162 µM)	relative viability (Bosutinib + Linsitinib; first compound 0.1 µM)	relative viability (Bosutinib + Linsitinib; first compound 1 µM)
NCI-H838	0.658	0.56	0.53	0.375	0.845	0.79	0.737	0.354	0.327	0.269	0.385	0.237	0.468	0.429	0.414	0.319	1.04	0.97	0.951	0.466
NCI-H3122	0.399	0.375	0.35	0.3	0.287	0.282	0.328	0.322	0.0649	0.0933	0.104	0.104	0.623	0.609	0.624	0.761	0.981	0.995	1.09	0.989
SK-MES-1	0.66	0.686	0.632	0.502	0.954	1.03	0.997	0.96	0.812	0.839	0.765	0.284	0.374	0.351	0.437	0.305	1.16	1.07	1.08	0.941
NCI-H1944	0.203	0.193	0.202	0.186	1.16	1.07	1.09	0.946	0.839	0.713	0.777	0.469	0.35	0.327	0.333	0.345	1.18	1.25	1.14	0.809
LK-2	0.711	0.552	0.382	0.348	0.258	0.227	0.248	0.224	0.199	0.171	0.19	0.209	0.645	0.603	0.577	0.378	0.671	0.55	0.523	0.337
PC-3 [JPC-3]	0.481	0.506	0.43	0.441	0.899	0.939	0.978	0.942	0.679	0.835	0.685	0.569	0.756	0.726	0.73	0.59	0.954	0.957	0.971	0.912
COR-L23	0.432	0.451	0.449	0.496	0.663	0.589	0.571	0.749	0.613	0.685	0.76	0.56	0.893	0.826	0.813	0.81	1	0.96	0.895	0.887
NCI-H1355	0.517	0.474	0.448	0.362	1.07	1.04	1.12	0.905	0.752	0.691	0.761	0.566	0.465	0.545	0.572	0.412	0.824	0.792	0.872	0.687
NCI-H460	0.557	0.492	0.491	0.356	0.85	0.884	0.859	0.639	0.0343	0.0293	0.0274	0.0252	0.38	0.353	0.321	0.299	0.753	0.835	0.668	0.338
NCI-H1993	0.513	0.511	0.492	0.59	0.816	0.875	0.686	0.602	0.688	0.817	0.875	0.887	0.827	0.896	0.967	0.741	0.749	0.759	0.645	0.762
ChaGo-K-1	0.536	0.503	0.497	0.515	1.21	1.14	1.09	1.17	0.622	0.555	0.47	0.585	0.544	1.05	1.06	1.14	–	–	–	–
HCC-15	0.478	0.466	0.471	0.389	0.809	0.846	0.844	0.771	0.39	0.346	0.315	0.18	0.799	0.829	0.725	0.773	0.905	0.837	0.954	0.803
NCI-H23	0.807	0.77	0.831	0.751	0.636	0.464	0.512	0.458	0.197	0.205	0.204	0.195	0.523	0.503	0.531	0.481	0.442	0.556	0.647	0.46
NCI-H1395	0.38	0.44	0.461	0.451	–	–	–	–	0.677	0.635	0.761	0.615	0.597	0.758	0.818	0.719	1.28	1.17	1.27	0.994
NCI-H1666	0.536	0.545	0.552	0.597	1.2	0.987	0.916	0.912	1.02	1.01	0.995	1.1	0.469	0.32	0.417	0.405	0.774	0.774	0.794	0.662
NCI-H2405	0.413	0.385	0.386	0.281	0.945	0.855	0.891	0.576	0.661	0.645	0.696	0.439	0.481	0.449	0.435	0.311	0.953	0.949	0.954	0.418
